Results reported in PMC3795758, “Biochemical and Molecular Characterization of a Serine Keratinase from Brevibacillus brevis US575 with Promising Keratin-Biodegradation and Hide-Dehairing Activities” (PLoS ONE, 2013).

Tested on: T1, KERUS
T1 construct: native extracellular enzyme purified from culture supernatant; mature form 275 aa of a 383-aa pre-pro-enzyme (pre 29 aa, pro 79 aa removed)
Experiment: esterase activity, absorbance at […] nm, Lineweaver-Burk
Type: biochemical, Brevibacillus brevis
Conditions: pH 8, 40°C, 10% (v/v) DMSO, 1% (v/v) Triton X-100

`CCOC(=O)[C@H](CCCN=C(N)N)NC(=O)c1ccccc1` [BAEE] was tested, and the Km was 655 ± 33 µM.
